The supplement of paper PMC10920090

How the values were obtained:
MDA-MB-231 [1] = experiment: drug sensitivity score (DSS), cytotoxicity CellTox Green; higher = more cytotoxic; extreme values may be limits of the assay; conditions: 72 h
MDA-MB-231 [2] = experiment: drug sensitivity score (DSS), cell viability CellTiter-Glo; higher = more sensitive; extreme values may be limits of the assay; conditions: 72 h
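Throughout, for drug sensitivity score (DSS), cytotoxicity CellTox Green: DSS summarises each dose–response curve by combining IC50, EC50, maximal inhibition and efficacy across drug concentrations.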

Row | Structure (SMILES) | drug sensitivity score (MDA-MB-231 [1]; shRNA: shPPFIA1_1) [DSS] | drug sensitivity score (MDA-MB-231 [1]; shRNA: shScramble) [DSS] | drug sensitivity score (MDA-MB-231 [2]; shRNA: shPPFIA1_1) [DSS] | drug sensitivity score (MDA-MB-231 [2]; shRNA: shScramble) [DSS]
1 | C[C@H]1C[C@@H]2[C@H]([C@@H](O)C[C@@]3(C)[C@H]2CC[C@]3(O)C(=O)CO)[C@@]2(C)C=CC(=O)C=C12 [Methylprednisolone] | 0 | 0 | 0 | 0
2 | CO[C@@H]1[C@H](N(C)C(=O)c2ccccc2)C[C@H]2O[C@]1(C)n1c3ccccc3c3c4c(c5c6ccccc6n2c5c31)C(=O)NC4 [Midostaurin] | 0 | 0.1 | 0 | 3.5
3 | CNC(=O)c1nn(C)c2c1C(C)(C)Cc1cnc(Nc3ccc(N4CCN(C)CC4)cc3)nc1-2 [Milciclib] | 0.3 | 0 | 0.9 | 5.1
4 | CO[C@@]12[C@H](COC(N)=O)C3=C(C(=O)C(C)=C(N)C3=O)N1C[C@@H]1N[C@@H]12 [Mitomycin C] | 0 | 0 | 0 | 0
5 | Clc1ccc(C(c2ccccc2Cl)C(Cl)Cl)cc1 (stereo not given) [Mitotane] | 0 | 0 | 0 | 0
6 | O=C1c2c(O)ccc(O)c2C(=O)c2c(NCCNCCO)ccc(NCCNCCO)c21 [Mitoxantrone] | 0 | 0 | 0 | 3.2
7 | Nc1ccccc1NC(=O)c1ccc(CNc2nccc(-c3cccnc3)n2)cc1 [Mocetinostat] | 10.5 | 4.8 | 3.6 | 8.3
8 | N#CCNC(=O)c1ccc(-c2ccnc(Nc3ccc(N4CCOCC4)cc3)n2)cc1 [Momelotinib] | 0 | 0 | 0 | 0
9 | CC1(C)CNc2cc(NC(=O)c3cccnc3NCc3ccncc3)ccc21 [Motesanib] | 0 | 0.3 | 0 | 0
10 | FC(F)(F)c1ccc(/C=C/c2nc(COc3ccc(CCCCn4ccnn4)cc3)co2)cc1 [Mubritinib] | 0 | 0 | 2.1 | 2
11 | Cc1cc(OCc2nnc(SC3CCCC3)n2-c2cccnc2)ccc1-c1ccc(S(C)(=O)=O)cc1 [NMS-873] | 7.6 | 7.4 | 6.8 | 14.7
12 | CCN1CCN(Cc2ccc(-c3cc4c(N[C@H](C)c5ccccc5)ncnc4[nH]3)cc2)CC1 [NVP-AEE788] | 0 | 0 | 0.4 | 0.8
13 | CCN1CCN(c2ccc(Nc3cc(N(C)C(=O)Nc4c(Cl)c(OC)cc(OC)c4Cl)ncn3)cc2)CC1 [NVP-BGJ398] | 0 | 0 | 0 | 0
14 | CNC(=O)c1ccc(-c2cnc3ncc(Cc4ccc5ncccc5c4)n3n2)cc1F [NVP-INC280] | 0 | 0 | 4.5 | 10.5
15 | CC1(C)CCC(c2ccc(Cl)cc2)=C(CN2CCN(c3ccc(C(=O)NS(=O)(=O)c4ccc(N[C@H](CCN5CCOCC5)CSc5ccccc5)c(S(=O)(=O)C(F)(F)F)c4)cc3)CC2)C1 [Navitoclax] | 15.2 | 12.4 | 4.4 | 4.4
